Measurements from patent US20040102423A1, “Spironolactone and angiotensin II antagonist combination therapy for treatment of congestive heart failure” (G.D. Searle & Co., priority 1995, published 2004).
Like-named read-outs stand apart in the source and are kept apart here. Each block holds one compound with its values, some of them ahead of it.

Key:
[1] = molecular target: angiotensin II AT1 receptor; assay: Assay A: Angiotensin II binding activity, rat uterine membrane preparation, 125I-AII displacement
rabbit aortic rings = assay: Assay B: In vitro vascular smooth muscle response for AII (antagonist activity, pA2); type: cell-based; details: Oryctolagus cuniculus, two values in a cell = two determinations
Description: Assay B: In Vitro Vascular Smooth Muscle-Response for AII
The compounds of the invention were tested for antagonist activity in rabbit aortic rings. Male New Zealand white rabbits (2-2.5 kg) were sacrificed using an overdose of pentobarbital and exsanguinated via the carotid arteries. The thoracic aorta was removed, cleaned of adherent fat and connective tissue and then cut into 3-mm ring segments. The endothelium was removed from the rings by gently sliding a rolled-up piece of filter paper into the vessel lumen. The rings were then mounted in a water-jacketed tissue bath, maintained at 37° C., between moveable and fixed ends of a stainless steel wire with the moveable end attached to an FT03 Grass transducer coupled to a Model 7D Grass Polygraph for recording isometric force responses. The bath was filled with 20 ml of oxygenated (95% oxygen/5% carbon dioxide) Krebs solution of the following composition (mM): 130 NaCl, 15 NaHCO3, […], 1.2 NaH2PO4, 1.2 MgSO4, 2.5 CaCl2, and 11.4 glucose. The preparations were equilibrated for one hour before approximately one gram of passive tension was placed on the rings. Angiotensin II concentration-response curves were then recorded (3×10^−10 to 1×10^−5 M). Each concentration of AII was allowed to elicit its maximal contraction, and then AII was washed out repeatedly for 30 minutes before rechallenging with a higher concentration of AII. Aorta rings were exposed to the test antagonist at 10^−5 M for 5 minutes before challenging with AII. Adjacent segments of the same aorta ring were used for all concentration-response curves in the presence or absence of the test antagonist. The effectiveness of the test compound was expressed in terms of pA2 values and were calculated according to H. O. Schild [Br. J. Pharmacol. Chemother., 2, 189-206 (1947)]. The pA2 value is […] which increases the EC50 value for AII by a factor of two. Each test antagonist was evaluated in aorta rings from two rabbits.

pressor response to AII = assay: Assay C: In vivo intragastric pressor assay response for AII antagonists; set-up: species or system Sprague-Dawley rats; details: in vivo pressor response; for inhibition in vivo at 30 mg/kg: read-out: Assay C Inhibition

SMILES: COC(=O)CC[C@]1(O)CC[C@H]2[C@@H]3[C@H](C(=O)OC)CC4=CC(=O)CC[C@]4(C)C34O[C@@H]4C[C@@]21C (stereo partly shown) [Compound 2]
IC50 [1]: 95 nM
Kb (rabbit aortic rings): 42.7 nM
inhibition in vivo at 10 mg/kg (pressor response to AII; Rattus norvegicus, intraduodenal, 10 mg/kg intraduodenally): 95%
inhibition in vivo at 30 mg/kg (pressor response to AII; Rattus norvegicus, intraduodenal, 30 mg/kg intraduodenally): 98%
Assay C Duration (pressor response to AII; 10 mg/kg intraduodenally): 60 min
Assay C Duration (pressor response to AII; 30 mg/kg intraduodenally): 90 to 120 min

SMILES: C[C@]12CCC(=O)C=C1[C@@H]1CC1[C@H]1[C@@H]3CC[C@@]4(CCC(=O)O4)[C@@]3(C)CC3O[C@]312 (stereo partly shown) [Compound 3]
IC50 [1]: 5.4 nM
Kb (rabbit aortic rings): 2 nM
inhibition in vivo at 10 mg/kg (pressor response to AII; Rattus norvegicus, po, 10 mg/kg intragastrically): 50%
inhibition in vivo at 30 mg/kg (pressor response to AII; Rattus norvegicus, po, 30 mg/kg intragastrically): 100%
Assay C Duration (pressor response to AII; 10 mg/kg intragastrically): >180 min
Assay C Duration (pressor response to AII; 30 mg/kg intragastrically): 200^+ min.

SMILES: CCCCc1nn(CC(=O)O)c(=O)n1Cc1ccc(-c2ccccc2-c2nn[nH]n2)cc1 [Compound 98]
IC50 [1]: 22 nM
Kb (rabbit aortic rings): 7.94 nM

SMILES: CCCCc1nn(Cc2cccc3ccccc23)c(=O)n1Cc1ccc(-c2ccccc2-c2nn[nH]n2)cc1 [Compound 99]
IC50 [1]: 280 nM
Kb (rabbit aortic rings): 316 nM

SMILES: CCCCc1nn(CCC2CCCCC2)c(=O)n1Cc1ccc(-c2ccccc2-c2nn[nH]n2)cc1 [Compound 100]
IC50 [1]: 4.4 nM
Kb (rabbit aortic rings): 0.398 nM

SMILES: CCCCc1nn(CC(OCC(=O)O)c2ccccc2)c(=O)n1Cc1ccc(-c2ccccc2-c2nn[nH]n2)cc1 (stereo not shown) [Compound 102]
IC50 [1]: 43 nM
Kb (rabbit aortic rings): 20 nM

SMILES: CCCCc1nn(CCC(C)CC(C)(C)C)c(=O)n1Cc1ccc(-c2ccccc2-c2nn[nH]n2)cc1 (stereo not shown) [Compound 103]
IC50 [1]: 12 nM
Kb (rabbit aortic rings): 10 nM

SMILES: CCCCc1nn(C(Cc2ccccc2)C(=O)c2ccccc2)c(=O)n1Cc1ccc(-c2ccccc2-c2nn[nH]n2)cc1 (stereo not shown) [Compound 105]
IC50 [1]: 290 nM
Kb (rabbit aortic rings): 251 nM

SMILES: CCCCc1nn(Cc2ccc3ccccc3c2)c(=O)n1Cc1ccc(-c2ccccc2-c2nn[nH]n2)cc1 [Compound 110]
IC50 [1]: 590 nM
Kb (rabbit aortic rings): 398 nM

SMILES: CCCCc1nn(C(CC(=O)OCC)C(=O)c2ccccc2)c(=O)n1Cc1ccc(-c2ccccc2-c2nn[nH]n2)cc1 (stereo not shown) [Compound 112]
IC50 [1]: 2000 nM
Kb (rabbit aortic rings): 6310 nM

SMILES: CCCCc1nn(CCCCC(=O)O)c(=O)n1Cc1ccc(-c2ccccc2-c2nn[nH]n2)cc1 [Compound 114]
IC50 [1]: 400 nM
Kb (rabbit aortic rings): 398 nM

SMILES: CCCCc1nn(C/C=C/c2ccccc2)c(=O)n1Cc1ccc(-c2ccccc2-c2nn[nH]n2)cc1 [Compound 116]
IC50 [1]: 230 nM
Kb (rabbit aortic rings): 316 nM

SMILES: CCCCn1nc(C(C#N)CCC)n(Cc2ccc(-c3ccccc3-c3nn[nH]n3)cc2)c1=O (stereo not shown) [Compound 117]
IC50 [1]: 170 nM
Kb (rabbit aortic rings): 316 nM

SMILES: CCCCc1nc2c(CCC)nnc(O)c2n1Cc1ccc(-c2ccccc2-c2nnn[nH]2)cc1 [Compound 124]
Kb (rabbit aortic rings): 0.38 nM
inhibition in vivo at 3 mg/kg (pressor response to AII; Rattus norvegicus, po, 3 mg/kg intragastrically): 45%
Assay C Duration (pressor response to AII; 3 mg/kg intragastrically): >180 min

SMILES: CCCCc1nc(Cc2ccc(-c3ccccc3C(=O)O)cc2)n(CCCC)n1 [Compound 137]
IC50 [1]: 220 nM
Kb (rabbit aortic rings): 5.01 nM

SMILES: CCCCc1nc(Cc2ccc(-c3ccccc3-c3nnn[nH]3)cc2)n(CCCC)n1 [Compound 139]
IC50 [1]: 0.27 nM
Kb (rabbit aortic rings): 501 nM

SMILES: CCCCc1nc(Cc2ccc(-c3ccccc3-c3nnn[nH]3)cc2)nn1CCCC [Compound 140]
IC50 [1]: 0.031 nM
Kb (rabbit aortic rings): 7.94 nM

SMILES: CCCCc1cn(CCCC)c(=O)n1Cc1ccc(-c2ccccc2-c2nnn[nH]2)cc1 [Compound 143]
IC50 [1]: 0.052 nM
Kb (rabbit aortic rings): 20 nM

SMILES: CCCCc1cn(CCc2cccs2)c(=O)n1Cc1ccc(-c2ccccc2-c2nnn[nH]2)cc1 [Compound 145]
IC50 [1]: 0.48 nM
Kb (rabbit aortic rings): 200 nM

SMILES: CCCCc1nc(CCCC)n(Cc2ccc(-n3c(Cl)cc(Cl)c3-c3nnn[nH]3)cc2)n1 [Compound 154]
IC50 [1]: 97 nM
Kb (rabbit aortic rings): 6.46 nM

SMILES: CCCCn1nc(/C=C/c2cccs2)nc1Cc1ccc(-c2ccccc2-c2nnn[nH]2)nc1 [Compound 165]
IC50 [1]: 410 nM
Kb (rabbit aortic rings): 126 nM

SMILES: CCCCCn1nc(CCCC)nc1Cc1ccc(-c2ccccc2-c2nnn[nH]2)nc1 [Compound 166]
IC50 [1]: 160 nM
Kb (rabbit aortic rings): 26.9 nM

SMILES: CCCCn1nc(C(F)CCC)nc1Cc1ccc(-c2ccccc2-c2nnn[nH]2)nc1 (stereo not shown) [Compound 172]
IC50 [1]: 70 nM
Kb (rabbit aortic rings): 70.8 nM

SMILES: CCCCn1nc(C(F)F)nc1Cc1ccc(-c2ccccc2-c2nnn[nH]2)nc1 [Compound 174]
IC50 [1]: 180 nM
Kb (rabbit aortic rings): 51.3 nM

SMILES: CCCn1nc(C(F)(F)CC)nc1Cc1ccc(-c2ccccc2-c2nnn[nH]2)nc1 [Compound 178]
IC50 [1]: 88 nM
Kb (rabbit aortic rings): 28.8 nM

SMILES: CCCCn1nc(C(=O)NC(C)(C)C)nc1Cc1ccc(-c2ccccc2-c2nnn[nH]2)nc1 [Compound 184]
IC50 [1]: 1100 nM
Kb (rabbit aortic rings): 166 nM

SMILES: CCCCc1cn(-c2ccccc2Cl)c(=O)n1Cc1ccc(-c2ccccc2-c2nnn[nH]2)nc1 [Compound 227]
IC50 [1]: 89 nM
Kb (rabbit aortic rings): 28.2 nM

SMILES: CCCCc1cn(CCCC)c(=O)n1Cc1ccc(-c2ncccc2-c2nnn[nH]2)cc1 [Compound 235]
IC50 [1]: 34 nM
Kb (rabbit aortic rings): 72.4 nM

SMILES: CCCCc1cn(-c2c(C)cc(C(C)(C)C)cc2C)c(=O)n1Cc1ccc(-c2ccccc2-c2nnn[nH]2)nc1 [Compound 244]
IC50 [1]: 150 nM
Kb (rabbit aortic rings): 67.6 nM

SMILES: CCCCc1cn(-c2c(C(C)C)cccc2C(C)C)c(=O)n1Cc1ccc(-c2ccccc2-c2nnn[nH]2)nc1 [Compound 246]
IC50 [1]: 72 nM
Kb (rabbit aortic rings): 34.7 nM

SMILES: CCCCc1nc(C(F)(F)CCC)nn1Cc1ccc(-c2ccccc2-c2nnn[nH]2)nc1 [Compound 258]
IC50 [1]: 350 nM
Kb (rabbit aortic rings): 145 nM

SMILES: CCCCc1nc(-c2ccccc2Cl)n(Cc2ccc(-c3ccccc3-c3nnn[nH]3)nc2)n1 [Compound 279]
IC50 [1]: 270 nM
Kb (rabbit aortic rings): 8.71 nM

More lines, in order of falling IC50 [1], values ahead:

IC50 [1]: 530 nM
SMILES: CCCCc1nc(CC(CC)CC)nn1Cc1ccc(-c2ccccc2-c2nnn[nH]2)nc1 [Compound 262]
Kb (rabbit aortic rings): 603 nM

IC50 [1]: 480 nM
SMILES: CCCCc1nc(-c2c(F)cccc2F)nn1Cc1ccc(-c2ccccc2-c2nnn[nH]2)nc1 [Compound 280]
Kb (rabbit aortic rings): 389 nM

IC50 [1]: 420 nM
SMILES: CCCCc1nc(Cc2ccc(-c3ccccc3-c3nnn[nH]3)nc2)n(CC(CC)CC)n1 [Compound 168]
Kb (rabbit aortic rings): 20.4 nM

IC50 [1]: 370 nM
SMILES: CCCCCc1nc(Cc2ccc(-c3ccccc3-c3nnn[nH]3)nc2)n(CCCC)n1 [Compound 167]
Kb (rabbit aortic rings): 83.2 nM

IC50 [1]: 310 nM
SMILES: CCCCn1nc(C(F)(F)CC)nc1Cc1ccc(-c2ccccc2-c2nnn[nH]2)nc1 [Compound 179]
Kb (rabbit aortic rings): 214 nM

IC50 [1]: 190 nM
SMILES: CCCCc1nc(-c2ccccc2OC)n(Cc2ccc(-c3ccccc3-c3nnn[nH]3)nc2)n1 [Compound 277]
Kb (rabbit aortic rings): 288 nM

IC50 [1]: 180 nM
SMILES: CCCCc1nn(CC(=O)c2cc(OC)ccc2OC)c(=O)n1Cc1ccc(-c2ccccc2-c2nn[nH]n2)cc1 [Compound 107]
Kb (rabbit aortic rings): 5.01 nM

IC50 [1]: 160 nM
SMILES: CCCc1nc(CCC)n(Cc2ccc(-c3ccccc3-c3nnn[nH]3)nc2)n1 [Compound 257]
Kb (rabbit aortic rings): 234 nM

IC50 [1]: 130 nM
SMILES: CCCCc1nc(Cc2ccc(-c3ccccc3C(=O)O)cc2)nn1CCCC [Compound 138]
Kb (rabbit aortic rings): 6.31 nM

IC50 [1]: 84 nM
SMILES: CCCCc1cn(-c2c(C)cccc2C)c(=O)n1Cc1ccc(-c2ccccc2-c2nnn[nH]2)nc1 [Compound 233]
Kb (rabbit aortic rings): 3.09 nM

IC50 [1]: 48 nM
SMILES: CCCCc1nn(C(=O)CCC)c(=O)n1Cc1ccc(-c2ccccc2-c2nn[nH]n2)cc1 [Compound 106]
Kb (rabbit aortic rings): 20 nM

IC50 [1]: 47 nM
SMILES: CCCCn1nc(C(C)=O)nc1Cc1ccc(-c2ccccc2-c2nnn[nH]2)nc1 [Compound 194]
Kb (rabbit aortic rings): 22.9 nM

IC50 [1]: 36 nM
SMILES: CCCCCn1nc(CCCC)n(Cc2ccc(-c3ccccc3-c3nn[nH]n3)cc2)c1=O [Compound 101]
Kb (rabbit aortic rings): 15.8 nM

IC50 [1]: 15 nM
SMILES: CCCCc1nn(/C(Cc2ccccc2)=C(/OCc2ccccc2)c2ccccc2)c(=O)n1Cc1ccc(-c2ccccc2-c2nn[nH]n2)cc1 [Compound 104]
Kb (rabbit aortic rings): 10 nM

IC50 [1]: 1.1 nM
SMILES: CCCc1cn(CCC)c(=O)n1Cc1ccc(-c2ccccc2-c2nnn[nH]2)cc1 [Compound 149]
Kb (rabbit aortic rings): 794 nM

IC50 [1]: 0.11 nM
SMILES: CCCCn1nc(C(F)(F)CCC)nc1Cc1ccc(-c2ccccc2-c2nnn[nH]2)cc1 [Compound 141]
Kb (rabbit aortic rings): 9.55 nM

IC50 [1]: 0.088 nM
SMILES: CCCCc1cn(CCc2ccccc2)c(=O)n1Cc1ccc(-c2ccccc2-c2nnn[nH]2)cc1 [Compound 144]
Kb (rabbit aortic rings): 20 nM

IC50 [1]: 0.072 nM
SMILES: CCCCc1cn(-c2ccccc2Cl)c(=O)n1Cc1ccc(-c2ccccc2-c2nnn[nH]2)cc1 [Compound 146]
Kb (rabbit aortic rings): 398 nM
